Results reported in PubChem BioAssay (NCI).
Values joined by “and” are separate entries in the source; they are usually repeats but may differ in a detail not shown here. Identical values can stand only once.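 The compound was tested at five concentrations on cells cultured in 96-well plates, with a 48-hour exposure period. At the GI50, growth is halved. TGI denotes the concentration required for complete inhibition of growth.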

Assays:
Test in all cases: NCI tumour cell line growth inhibition, 48 h
BT-549 breast = test system: BT-549 breast
DU-145 prostate = test system: DU-145 prostate
HS 578T breast = test system: HS 578T breast
HT29 colon = test system: HT29 colon
KM12 colon = test system: KM12 colon
M14 melanoma = test system: M14 melanoma
TK-10 renal = test system: TK-10 renal
UACC-257 melanoma = test system: UACC-257 melanoma
DMS 273 small cell lung = test system: DMS 273 small cell lung
KM20L2 colon = test system: KM20L2 colon

Structure (SMILES) | GI50 (BT-549 breast) | TGI (BT-549 breast) | GI50 (DU-145 prostate) | TGI (DU-145 prostate) | GI50 (HS 578T breast) | TGI (HS 578T breast) | GI50 (HT29 colon) | TGI (HT29 colon) | GI50 (KM12 colon) | TGI (KM12 colon) | GI50 (M14 melanoma) | TGI (M14 melanoma) | GI50 (TK-10 renal) | TGI (TK-10 renal) | GI50 (UACC-257 melanoma) | TGI (UACC-257 melanoma) | TGI (DMS 273 small cell lung) | TGI (KM20L2 colon)
COc1ccc(/C(=C/c2ccc3ccccc3c2)c2nn[nH]n2)cc1OC | 10.9 µM | > 100 µM | 3.53 µM | 49.2 µM | 2.23 µM | 53.6 µM | 2.69 µM | 21.6 µM | 2.79 µM | > 100 µM | 1.9 µM | > 100 µM | 18.5 µM | > 100 µM | 56.6 µM | > 100 µM | – | –
O=c1c2cccc(F)c2sc2c(NCCCNCCO)nc3ccccc3c12 | 6.16 µM | 19.8 µM | 1.22 µM | 2.48 µM | 1.55 µM | 3.53 µM | 1.51 µM | 3.25 µM | 1.61 µM | 3.04 µM | 1.53 µM | 2.98 µM | 1.96 µM | 3.57 µM | 2.03 µM | 3.99 µM | – | –
Cc1cc(Cl)ccc1NC(=O)CC1SC(=NC(=O)c2ccccc2Cl)NC1=O (stereo not drawn) | – | – | – | – | – | – | – | 45 µM | – | – | – | 32 µM | – | – | – | 38.6 µM | 37 µM | > 100 µM
COC(=O)CC1C2(C)C3=C(C)C(c4ccoc4)CC3OC2C2OC(=O)C3(C)C=CC(=O)C1(C)C23 (stereo not drawn) | – | 2.35 µM | – | 2.06 µM | – | > 96.3 µM | – | 2.49 µM | – | 3.55 µM | – | 3.25 µM | – | 5.94 µM | – | 5.02 µM | – | –
CS(=O)(=O)c1ccc2c(c1)C(=O)c1c-2n(CCCBr)c(=O)c2cc([N+](=O)[O-])ccc12 | 26.7 µM | > 100 µM | 6.25 µM | > 100 µM | 4.98 µM | 44.1 µM | 29.5 µM | > 100 µM | > 100 µM | > 100 µM | 7.11 µM | > 100 µM | 40.2 µM | > 100 µM | 43.7 µM | > 100 µM | – | –
CC(C)n1nc(C#Cc2cccc(O)c2)c2c(N)ncnc21 | 1.33 µM and 1.34 µM | 4.56 µM and 6.18 µM | 1.67 µM and 1.51 µM | 14.5 µM and 11.1 µM | 0.583 µM and 0.17 µM | 1.88 µM and 0.632 µM | 2.04 µM and 1.74 µM | 50 µM and 19.4 µM | 1.75 µM and 2.33 µM | 25.8 µM and 60.8 µM | 0.693 µM and 0.397 µM | 4.68 µM and 2.42 µM | 2.57 µM and 2.03 µM | 10.1 µM and 5.05 µM | 1.22 µM and 1.63 µM | 6.17 µM and 4.95 µM | – | –
Nc1nc(=S)c2ncn(C3OC(CO)C(O)C3O)c2[nH]1 (stereo not drawn) | 2.12 µM | > 100 µM | 0.542 µM | > 100 µM | 2.27 µM | > 86.1 µM | 0.981 µM | > 100 µM | 1.79 µM | > 27.8 µM | 0.304 µM | 3.13 µM | 0.633 µM | > 64.8 µM | 31.8 µM | > 100 µM | – | –
O=C(/C=C/c1ccco1)Nc1ncc(Cc2cccc(C(F)(F)F)c2)s1 | 0.248 µM | > 21.2 µM | 0.103 µM | > 24.3 µM | 0.0466 µM | 3.89 µM | 0.0388 µM | > 33 µM | 0.0432 µM | > 31.8 µM | 0.0572 µM | 3.18 µM | 0.779 µM | 13.8 µM | 3.63 µM | > 100 µM | – | –
Cc1cncc(-c2nc(NCCc3c[nH]c4ccccc34)c3ncn(C(C)C)c3n2)c1 | 2.99 µM | 15 µM | 4.41 µM | 22.1 µM | 2.64 µM | 9.96 µM | 2.11 µM | 5.17 µM | 3.36 µM | 12.8 µM | 3.94 µM | 16.9 µM | 10.3 µM | 52.8 µM | 1.91 µM | 3.85 µM | – | –
O=C(COc1cccc(/C=C2\COc3ccccc3C2=O)c1)c1ccccc1 | 5.3 µM | 22.2 µM | 6.11 µM | 17.4 µM | 2.34 µM | > 100 µM | 2.04 µM | 4.5 µM | 1.92 µM | 3.65 µM | 3.12 µM | 14 µM | 3.6 µM | 11.2 µM | 6.03 µM | 18.6 µM | – | –
COC(=O)[C@H](Cc1ccccc1)NNC(=O)c1csc([C@@H](C[C@H](C(C)C)N(C)C(=O)[C@@H](NC(=O)[C@H]2CCCCN2C)C2CC2)OC(C)=O)n1 | – | 0.317 µM and 0.973 µM | – | 25 µM and > 100 µM | – | > 100 µM | – | 25 µM and > 100 µM | – | 25 µM and > 100 µM | 0.0112 µM and 0.0025 µM | 25 µM | – | 25 µM and > 100 µM | – | > 100 µM | – | –
NC(CP(=O)(O)O)C(=O)O (stereo not drawn) | – | > 100 µM | – | > 100 µM | – | > 100 µM | – | > 100 µM | – | > 100 µM | – | > 100 µM | – | > 100 µM | – | > 100 µM | – | –
